Results reported in PubChem BioAssay (NCI).
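48-hour exposure; five concentrations; linearly interpolated endpoints. GI50 marks 50% less growth. TGI: total growth inhibition.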

Assays:
Test in all cases: DTP human tumour cell line panel, 48 h
786-0 renal = test system: 786-0 renal
A549 NSCLC = test system: A549 NSCLC
ACHN renal = test system: ACHN renal
BT-549 breast = test system: BT-549 breast
CAKI-1 renal = test system: CAKI-1 renal
COLO 205 colon = test system: COLO 205 colon
DU-145 prostate = test system: DU-145 prostate
EKVX NSCLC = test system: EKVX NSCLC
HCC-2998 colon = test system: HCC-2998 colon
HCT-116 colon = test system: HCT-116 colon
HCT-15 colon = test system: HCT-15 colon
HL-60(TB) leukemia = test system: HL-60(TB) leukemia
HOP-62 NSCLC = test system: HOP-62 NSCLC
HOP-92 NSCLC = test system: HOP-92 NSCLC
HS 578T breast = test system: HS 578T breast
IGROV1 ovarian = test system: IGROV1 ovarian
K-562 leukemia = test system: K-562 leukemia
KM12 colon = test system: KM12 colon
LOX IMVI melanoma = test system: LOX IMVI melanoma
M14 melanoma = test system: M14 melanoma
MCF7 breast = test system: MCF7 breast
MDA-MB-231 breast = test system: MDA-MB-231 breast
MDA-MB-435 = test system: MDA-MB-435
NCI-H23 lung = test system: NCI-H23 lung
NCI-H460 lung = test system: NCI-H460 lung
NCI-H522 lung = test system: NCI-H522 lung
NCI/ADR-RES ovarian = test system: NCI/ADR-RES ovarian
OVCAR-3 ovarian = test system: OVCAR-3 ovarian
OVCAR-4 ovarian = test system: OVCAR-4 ovarian
OVCAR-5 ovarian = test system: OVCAR-5 ovarian
OVCAR-8 ovarian = test system: OVCAR-8 ovarian
PC-3 prostate = test system: PC-3 prostate
RPMI-8226 leukemia = test system: RPMI-8226 leukemia
RXF 393 renal = test system: RXF 393 renal
SF-268 CNS = test system: SF-268 CNS
SF-295 CNS = test system: SF-295 CNS
SF-539 CNS = test system: SF-539 CNS
SK-MEL-2 melanoma = test system: SK-MEL-2 melanoma
SK-MEL-28 melanoma = test system: SK-MEL-28 melanoma
SK-MEL-5 melanoma = test system: SK-MEL-5 melanoma
SK-OV-3 ovarian = test system: SK-OV-3 ovarian
SN12C renal = test system: SN12C renal
SNB-19 CNS = test system: SNB-19 CNS
SR leukemia = test system: SR leukemia
SW-620 colon = test system: SW-620 colon
T-47D breast = test system: T-47D breast
TK-10 renal = test system: TK-10 renal
U251 CNS = test system: U251 CNS
UACC-257 melanoma = test system: UACC-257 melanoma
UACC-62 melanoma = test system: UACC-62 melanoma
UO-31 renal = test system: UO-31 renal

## Oc1ccc(Nc2nc3ccccc3c3occc23)cc1
786-0 renal
  GI50: 12.2 µM
  TGI: 26.8 µM
A549 NSCLC
  GI50: 14.4 µM
  TGI: 52.1 µM
ACHN renal
  GI50: 4.54 µM
  TGI: 29.4 µM
BT-549 breast
  GI50: 6.72 µM
  TGI: 34.6 µM
CAKI-1 renal
  GI50: 12.1 µM
  TGI: 28.1 µM
COLO 205 colon
  GI50: 18.9 µM
  TGI: 50.1 µM
DU-145 prostate
  GI50: 11.3 µM
  TGI: 23.4 µM
EKVX NSCLC
  GI50: 14.5 µM
  TGI: 39.2 µM
HCC-2998 colon
  GI50: 11.4 µM
  TGI: 23.7 µM
HCT-116 colon
  GI50: 16.3 µM
  TGI: 34.5 µM
HCT-15 colon
  GI50: 14.3 µM
  TGI: 40.5 µM
HL-60(TB) leukemia
  GI50: 10.2 µM
  TGI: > 100 µM
HOP-62 NSCLC
  GI50: 16.9 µM
  TGI: > 100 µM
HOP-92 NSCLC
  GI50: 13.9 µM
  TGI: 32 µM
HS 578T breast
  GI50: 16.5 µM
  TGI: 45.4 µM
IGROV1 ovarian
  GI50: 2.93 µM
  TGI: 23.5 µM
K-562 leukemia
  GI50: 9.84 µM
  TGI: > 100 µM
KM12 colon
  GI50: 15.5 µM
  TGI: 38.6 µM
LOX IMVI melanoma
  GI50: 2.21 µM
  TGI: 15.9 µM
M14 melanoma
  GI50: 14.2 µM
  TGI: 34.6 µM
MCF7 breast
  GI50: 11.5 µM
  TGI: 44.4 µM
MDA-MB-231 breast
  GI50: 5.34 µM
  TGI: 25.7 µM
MDA-MB-435
  GI50: 9.77 µM
  TGI: 21.6 µM
NCI-H23 lung
  GI50: 12.4 µM
  TGI: 28.5 µM
NCI-H460 lung
  GI50: 12.6 µM
  TGI: 36.1 µM
NCI-H522 lung
  GI50: 9.03 µM
  TGI: 26.1 µM
NCI/ADR-RES ovarian
  GI50: 16.2 µM
  TGI: 31.5 µM
OVCAR-3 ovarian
  GI50: 5.8 µM
  TGI: 22.8 µM
OVCAR-4 ovarian
  GI50: 12.3 µM
  TGI: 98.9 µM
OVCAR-5 ovarian
  GI50: 15.6 µM
  TGI: 38.3 µM
OVCAR-8 ovarian
  GI50: 17.1 µM
  TGI: 58.8 µM
PC-3 prostate
  GI50: 16.1 µM
  TGI: 66.4 µM
RPMI-8226 leukemia
  GI50: 7.63 µM
  TGI: 72.6 µM
RXF 393 renal
  GI50: 11.3 µM
  TGI: 41.3 µM
SF-268 CNS
  GI50: 11.4 µM
  TGI: 31.6 µM
SF-295 CNS
  GI50: 11 µM
  TGI: 23.9 µM
SF-539 CNS
  GI50: 16.5 µM
  TGI: 33.7 µM
SK-MEL-2 melanoma
  GI50: 18.2 µM
  TGI: 42.1 µM
SK-MEL-28 melanoma
  GI50: 17.6 µM
  TGI: 45.6 µM
SK-MEL-5 melanoma
  GI50: 8.15 µM
  TGI: 21.9 µM
SK-OV-3 ovarian
  GI50: 16.2 µM
  TGI: 33.7 µM
SN12C renal
  GI50: 12.2 µM
  TGI: 26.5 µM
SNB-19 CNS
  GI50: 17.2 µM
  TGI: 50.5 µM
SR leukemia
  GI50: 31.4 µM
  TGI: > 100 µM
SW-620 colon
  GI50: 19.7 µM
  TGI: 50.5 µM
T-47D breast
  GI50: 17 µM
  TGI: 51.2 µM
TK-10 renal
  GI50: 13 µM
  TGI: 27.1 µM
U251 CNS
  GI50: 11.3 µM
  TGI: 26.1 µM
UACC-257 melanoma
  GI50: 12.9 µM
  TGI: 30.7 µM
UACC-62 melanoma
  GI50: 11.7 µM
  TGI: 23.9 µM
UO-31 renal
  GI50: 10.1 µM
  TGI: 33.3 µM
